Laboratory results as given in patent US20090247519A1, “AMINO-ETHYL-AMINO-ARYL (AEAA) COMPOUNDS AND THEIR USE” (priority 2006, published 2009).

Biological target: T1, Human full length PKD1 (Homo sapiens, UniProt Q15139)
T1 construct: Human full length PKD1 at ˜100 μg/mL purchased from Upstate Ltd; purchased Upstate Ltd 14-508
T1 sequence (Q15139 1-912): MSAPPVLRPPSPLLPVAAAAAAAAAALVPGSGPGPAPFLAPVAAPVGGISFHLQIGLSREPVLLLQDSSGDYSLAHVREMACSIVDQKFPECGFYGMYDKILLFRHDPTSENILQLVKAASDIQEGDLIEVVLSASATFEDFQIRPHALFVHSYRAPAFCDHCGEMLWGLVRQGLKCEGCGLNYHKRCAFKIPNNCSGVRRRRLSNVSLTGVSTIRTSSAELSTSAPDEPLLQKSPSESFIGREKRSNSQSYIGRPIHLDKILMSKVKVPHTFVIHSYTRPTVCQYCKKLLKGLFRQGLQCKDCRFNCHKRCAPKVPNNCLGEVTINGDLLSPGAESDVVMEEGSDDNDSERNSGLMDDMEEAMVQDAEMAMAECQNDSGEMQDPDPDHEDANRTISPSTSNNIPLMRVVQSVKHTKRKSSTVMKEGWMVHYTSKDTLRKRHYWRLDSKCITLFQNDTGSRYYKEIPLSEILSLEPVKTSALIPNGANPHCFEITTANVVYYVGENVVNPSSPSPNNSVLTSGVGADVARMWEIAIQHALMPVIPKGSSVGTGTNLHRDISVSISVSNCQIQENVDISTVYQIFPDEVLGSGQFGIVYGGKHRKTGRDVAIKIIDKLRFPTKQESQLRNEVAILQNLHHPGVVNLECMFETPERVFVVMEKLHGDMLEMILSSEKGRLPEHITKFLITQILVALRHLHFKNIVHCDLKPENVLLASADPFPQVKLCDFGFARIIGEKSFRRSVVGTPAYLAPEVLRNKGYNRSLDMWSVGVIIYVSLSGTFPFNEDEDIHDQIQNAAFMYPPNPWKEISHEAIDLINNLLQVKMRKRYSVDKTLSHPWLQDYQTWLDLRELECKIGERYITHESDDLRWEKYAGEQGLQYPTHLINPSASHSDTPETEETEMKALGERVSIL
Assay: PKD1 (Human Full Length) Enzyme Activity Assay (IMAP fluorescence polarisation)
Assay type: biochemical
Conditions: 10 μM ATP, 10 point dose-response
Experimental: PKD1 (Human Full Length) Enzyme Activity Assay
Kinase Assay Reaction Buffer: This consisted of 0.22 μM filtered 25 mM HEPES and 2 mM MgCl2 pH 7.5.
Kinase Enzyme Human full length PKD1 at ˜100 μg/mL purchased from Upstate Ltd (Product code 14-508) was obtained from aliquots stored at −70° C. It was prepared with a final concentration of 0.3 μg/mL by diluting 1:300 in Reaction Buffer (30 μL per 9 mL-5 mL per plate with an additional 4 mL dead volume) and vortexing prior to use.
Substrate: Fluorescein labelled glycogen synthase-derived peptide (FI)-KKLNRTLSVA (also known as MAPKAP K2 substrate) was obtained from Molecular Devices (Product code R7127). […]
The fluorescence polarisation of the substrate in each well was recorded using an analyst microplate reader (Molecular Devices) with a single read at Ex485 Em535 (Analyst settings: Z Height 5 mm, G Factor 0.95, Reads/well 1, Integration 100000 μs, Gain Sensitivity 2).
Percentage inhibition was calculated based on activity of the test sample minus the average values in the blank wells relative to the average values measured in control wells minus the average values in the blank wells.
IC50 values were calculated from 10 point dose sigmoid ‘dose-response’ curves using XIfit software (IDBS inc, USA). […]

IC50: 0.9 nM
SMILES: CC[C@@H](N)CN(C)c1ccnc(-c2cc(Cl)ccc2O)n1 [XX-276, 2-{4-[((R)-2-Amino-butyl)-methyl-amino]-pyrimidin-2-yl}-4-chloro-phenol]
